These are literature values, as cited in US6599496B2, “Endoscopy tissue stain” (Chek-Med Systems, Inc., priority 1999, dated 2003).

This series concerns colon. The note with it: Hammond et al.

On to `CC1(C)C(/C=C/C=C/C=C/C=C2\N(CCCCS(=O)(=O)O)c3ccc4ccccc4c3C2(C)C)=[N+](CCCCS(=O)(=O)[O-])c2ccc3ccccc3c21` [Indocyanine green], for which the “permanence of the marking of lesions of the colon” value is “does not have long term permanence”.
